PubChem BioAssay AID1259407 (Chemical Carcinogenesis Research Information System (CCRIS), 2018)
Active and inactive are the calls of the source. The rule behind the calls is not given here.

Tested on: CCRIS mutagenicity, Ames/micronucleus/aberration tests
Assay: CCRIS mutagenicity studies
[1] = Test System: AMES SALMONELLA TYPHIMURIUM, Strain/Indicator: TA98, Metabolic Activation: NONE, Method: PREINCUBATION
[2] = Test System: AMES SALMONELLA TYPHIMURIUM, Strain/Indicator: TA100, Metabolic Activation: NONE, Method: PREINCUBATION
[3] = Test System: AMES SALMONELLA TYPHIMURIUM, Strain/Indicator: TA104, Metabolic Activation: NONE, Method: PREINCUBATION

Structure (SMILES): O=c1oc2c([N+](=O)[O-])ccc3ccc4cccc1c4c32
- mutagenic call (Test System: AMES SALMONELLA TYPHIMURIUM, Strain/Indicator: TA98(1,8-DNP6), Metabolic Activation: NONE, Method: PREINCUBATION): active; positive
- mutagenic call (Test System: AMES SALMONELLA TYPHIMURIUM, Strain/Indicator: TA98(1,8-DNP6), Metabolic Activation: RAT, LIVER, S-9, AROCLOR 1254, Method: PREINCUBATION): active; positive
- mutagenic call (Test System: AMES SALMONELLA TYPHIMURIUM, Strain/Indicator: TA98(NR), Metabolic Activation: NONE, Method: PREINCUBATION): active; positive
- mutagenic call (Test System: AMES SALMONELLA TYPHIMURIUM, Strain/Indicator: TA98(NR), Metabolic Activation: RAT, LIVER, S-9, AROCLOR 1254, Method: PREINCUBATION): active; positive
- mutagenic call [1]: active; positive
- mutagenic call (Test System: AMES SALMONELLA TYPHIMURIUM, Strain/Indicator: TA98, Metabolic Activation: RAT, LIVER, S-9, AROCLOR 1254, Method: PREINCUBATION): active; positive
- mutagenic call [2]: active; positive
- mutagenic call (Test System: AMES SALMONELLA TYPHIMURIUM, Strain/Indicator: TA100, Metabolic Activation: RAT, LIVER, S-9, AROCLOR 1254, Method: PREINCUBATION): active; positive

Structure (SMILES): Nc1cccc2cccc(S(=O)(=O)O)c12
- mutagenic call [1]: inactive; negative
- mutagenic call (Test System: AMES SALMONELLA TYPHIMURIUM, Strain/Indicator: TA98, Metabolic Activation: RAT LIVER S-9, PHENOBARBITAL AND BETA-NAPHTHOFLAVONE, Method: PREINCUBATION): active; positive
- mutagenic call [2]: inactive; negative
- mutagenic call (Test System: AMES SALMONELLA TYPHIMURIUM, Strain/Indicator: TA100, Metabolic Activation: RAT LIVER S-9, PHENOBARBITAL AND BETA-NAPHTHOFLAVONE, Method: PREINCUBATION): inactive; negative
- mutagenic call (Test System: AMES SALMONELLA TYPHIMURIUM, Strain/Indicator: TA1535, Metabolic Activation: NONE, Method: PREINCUBATION): inactive; negative
- mutagenic call (Test System: AMES SALMONELLA TYPHIMURIUM, Strain/Indicator: TA1535, Metabolic Activation: RAT LIVER S-9, PHENOBARBITAL AND BETA-NAPHTHOFLAVONE, Method: PREINCUBATION): inactive; negative
- mutagenic call (Test System: AMES SALMONELLA TYPHIMURIUM, Strain/Indicator: TA1537, Metabolic Activation: NONE, Method: PREINCUBATION): inactive; negative
- mutagenic call (Test System: AMES SALMONELLA TYPHIMURIUM, Strain/Indicator: TA1537, Metabolic Activation: RAT LIVER S-9, PHENOBARBITAL AND BETA-NAPHTHOFLAVONE, Method: PREINCUBATION): active; positive
- mutagenic call (Test System: AMES SALMONELLA TYPHIMURIUM, Strain/Indicator: TA1538, Metabolic Activation: NONE, Method: PREINCUBATION): inactive; negative
- mutagenic call (Test System: AMES SALMONELLA TYPHIMURIUM, Strain/Indicator: TA1538, Metabolic Activation: RAT LIVER S-9, PHENOBARBITAL AND BETA-NAPHTHOFLAVONE, Method: PREINCUBATION): active; positive
- mutagenic call (Test System: E.COLI, Strain/Indicator: WP2UVRA, Metabolic Activation: NONE, Method: PREINCUBATION): inactive; negative
- mutagenic call (Test System: E.COLI, Strain/Indicator: WP2UVRA, Metabolic Activation: RAT LIVER S-9, PHENOBARBITAL AND BETA-NAPHTHOFLAVONE, Method: PREINCUBATION): inactive; negative

Structure (SMILES): COc1cccc2c1OC1(C)OOC21C (stereo unspecified)
- mutagenic call [2]: active; positive

Structure (SMILES): CCCN(N)CCC
- mutagenic call (Test System: AMES SALMONELLA TYPHIMURIUM, Strain/Indicator: TA100, Metabolic Activation: NONE, Method: PREINCUBATION (11 HR GROWTH PERIOD FOR BACTERIA)): active; positive
- mutagenic call (Test System: AMES SALMONELLA TYPHIMURIUM, Strain/Indicator: TA100, Metabolic Activation: RAT, LIVER, S-9, PCB, Method: PREINCUBATION (11 HR GROWTH PERIOD FOR BACTERIA)): inactive; negative
- mutagenic call (Test System: AMES SALMONELLA TYPHIMURIUM, Strain/Indicator: TA102, Metabolic Activation: NONE, Method: PREINCUBATION (5 OR 7 HR GROWTH PERIOD FOR BACTERIA)): active; positive
- mutagenic call (Test System: AMES SALMONELLA TYPHIMURIUM, Strain/Indicator: TA102, Metabolic Activation: RAT, LIVER, S-9, PCB, Method: PREINCUBATION (5 OR 7 HR GROWTH PERIOD FOR BACTERIA)): inactive; negative

Structure (SMILES): O=C(Cl)c1ccc(C(=O)Cl)cc1
- mutagenic call [1]: active; positive
- mutagenic call (Test System: AMES SALMONELLA TYPHIMURIUM, Strain/Indicator: TA98, Metabolic Activation: RAT LIVER S-9, PCB, Method: PREINCUBATION): active; positive
- mutagenic call [2]: active; positive
- mutagenic call (Test System: AMES SALMONELLA TYPHIMURIUM, Strain/Indicator: TA100, Metabolic Activation: RAT LIVER S-9, PCB, Method: PREINCUBATION): active; positive
- mutagenic call [3]: active; positive
- mutagenic call (Test System: AMES SALMONELLA TYPHIMURIUM, Strain/Indicator: TA104, Metabolic Activation: RAT LIVER S-9, PCB, Method: PREINCUBATION): active; positive
- mutagenic call (Test System: E.COLI, Strain/Indicator: WP2 UVRA, Metabolic Activation: NONE, Method: PREINCUBATION): active; positive
- mutagenic call (Test System: E.COLI, Strain/Indicator: WP2 UVRA, Metabolic Activation: RAT LIVER S-9, PCB, Method: PREINCUBATION): active; positive

Structure (SMILES): CCOC(C)C(=O)C(O)O (stereo unspecified)
- mutagenic call (Test System: AMES SALMONELLA TYPHIMURIUM, Strain/Indicator: TA102, Metabolic Activation: NONE, Method: STANDARD PLATE): active; positive
- mutagenic call [3]: active; positive
- mutagenic call (Test System: AMES SALMONELLA TYPHIMURIUM, Strain/Indicator: TA2638A, Metabolic Activation: NONE, Method: STANDARD PLATE): active; positive
